Measured values: PMC8776995 (Frontiers in Chemistry, 2022)
Where “and” joins values, the source holds several entries; their conditions need not be identical. Equal entries are not always repeated. Where two headings read alike, the source gives them in different places.

Key:
wild-type EGFR = wild-type EGFR (Homo sapiens, UniProt P00533); experiment: EGFR kinase assay (ELISA); settings: for IC50: IC50 (μM) EGFR, ELISA, 3 μmol/L ATP; for A450: raw ELISA absorbance
H460 cells = experiment: CCK-8 antiproliferation assay, H460; settings: for IC50: NCI-H460, 48 h, read-out: IC50 (μM) H460, CCK-8, 48 h, average ± SD of three independent experiments
A549 cells = experiment: CCK-8 antiproliferation assay, A549; settings: for Inhibitory efficacy: A549 cells; for Inhibitory efficacy / inhibition at 1 µM / inhibition at 2 µM / inhibition at 4 µM / inhibition at 8 µM / inhibition at 16 µM: given as fraction, Repeat 1-3; for IC50 / inhibition at 1 µM / inhibition at 2 µM / inhibition at 4 µM / inhibition at 8 µM / inhibition at 16 µM: Homo sapiens; for IC50: A549, 48 h, read-out: IC50 (μM) A549, CCK-8, 48 h, average ± SD of three independent experiments; for inhibition at 1 µM / inhibition at 2 µM / inhibition at 4 µM / inhibition at 8 µM / inhibition at 16 µM: A549, read-out: Inhibitory efficacy, A549 cells
PC-9 cells = experiment: CCK-8 antiproliferation assay, PC-9; settings: for IC50: PC-9, 48 h, read-out: IC50 (μM) PC-9; for Inhibitory efficacy: single repeats (Repeat 1-3), given as fraction
H1975 cells = experiment: CCK-8 antiproliferation assay, H1975; settings: for Inhibitory efficacy: H1975 cells; for IC50: NCI-H1975, 48 h, read-out: IC50 (μM) H1975, CCK-8, 48 h, average ± SD of three independent experiments
[1] = 2uM, given as fraction, Repeat 1-3
[2] = 4uM, given as fraction, Repeat 1-3
[3] = 8uM, given as fraction, Repeat 1-3
[4] = 16uM, given as fraction, Repeat 1-3
[5] = Homo sapiens, NCI-H1975, read-out: Inhibitory efficacy, H1975 cells, 2uM, given as fraction, Repeat 1-3
[6] = Homo sapiens, NCI-H1975, read-out: Inhibitory efficacy, H1975 cells, 4uM, given as fraction, Repeat 1-3
[7] = Homo sapiens, NCI-H1975, read-out: Inhibitory efficacy, H1975 cells, 8uM, given as fraction, Repeat 1-3
[8] = Homo sapiens, NCI-H1975, read-out: Inhibitory efficacy, H1975 cells, 16uM, given as fraction, Repeat 1-3

Chain of wild-type EGFR (P00533 25-1210): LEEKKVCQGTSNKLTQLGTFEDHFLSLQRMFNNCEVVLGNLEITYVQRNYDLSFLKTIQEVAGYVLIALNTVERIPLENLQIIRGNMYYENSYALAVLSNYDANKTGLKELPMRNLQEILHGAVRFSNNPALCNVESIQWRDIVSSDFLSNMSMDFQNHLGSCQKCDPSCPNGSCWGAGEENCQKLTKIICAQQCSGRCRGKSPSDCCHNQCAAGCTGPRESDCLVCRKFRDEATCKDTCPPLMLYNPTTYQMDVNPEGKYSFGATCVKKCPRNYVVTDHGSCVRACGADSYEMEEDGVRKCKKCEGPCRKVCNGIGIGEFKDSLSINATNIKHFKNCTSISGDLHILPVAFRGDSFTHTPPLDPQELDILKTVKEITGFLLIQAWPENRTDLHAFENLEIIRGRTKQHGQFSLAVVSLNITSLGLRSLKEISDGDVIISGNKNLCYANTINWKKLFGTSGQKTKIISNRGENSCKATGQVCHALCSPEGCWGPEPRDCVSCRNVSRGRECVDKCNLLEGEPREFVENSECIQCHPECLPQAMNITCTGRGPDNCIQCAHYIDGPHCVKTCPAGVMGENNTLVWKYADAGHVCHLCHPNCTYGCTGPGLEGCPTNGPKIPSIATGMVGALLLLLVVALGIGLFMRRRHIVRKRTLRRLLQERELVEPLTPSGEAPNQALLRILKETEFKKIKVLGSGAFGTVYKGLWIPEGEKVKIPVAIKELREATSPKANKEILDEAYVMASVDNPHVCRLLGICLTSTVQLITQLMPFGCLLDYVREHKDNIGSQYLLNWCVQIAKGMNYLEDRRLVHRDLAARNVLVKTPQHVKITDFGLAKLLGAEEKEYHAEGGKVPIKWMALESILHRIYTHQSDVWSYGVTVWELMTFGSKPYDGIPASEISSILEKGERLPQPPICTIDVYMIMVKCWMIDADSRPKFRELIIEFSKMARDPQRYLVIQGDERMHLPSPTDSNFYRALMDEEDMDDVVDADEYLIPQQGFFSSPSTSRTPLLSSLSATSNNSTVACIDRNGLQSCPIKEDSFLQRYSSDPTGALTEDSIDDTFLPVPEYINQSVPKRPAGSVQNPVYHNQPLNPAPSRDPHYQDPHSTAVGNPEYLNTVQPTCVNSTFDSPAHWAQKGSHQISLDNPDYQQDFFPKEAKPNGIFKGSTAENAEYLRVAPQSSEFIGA

Structure (SMILES): COCCOc1cc2ncnc(Nc3cccc(-c4cn(-c5ccc(OC)cc5OC)nn4)c3)c2cc1OCCOC [e17, [6,7-Bis-(2-methoxy-ethoxy)-quinazolin-4-yl]-{3-[1-(2,4-dimethoxy-phenyl)-1H-[1,2,3]triazol-4-yl]-phenyl}-amine]
- melting point: 85 to 88 °C
- IC50 (wild-type EGFR): 15.5 µM
- inhibition at 30 pM (wild-type EGFR; concentration 0.03 nM, one value per replicate column): 13.7%
- Inhibition (wild-type EGFR; concentration 0.03 nM, one value per replicate column, 3e-05 µM): 9.36
- inhibition at 0.0003 µM (wild-type EGFR; concentration 0.3 nM, one value per replicate column): 14.2%
- Inhibition (wild-type EGFR; concentration 0.3 nM, one value per replicate column, 0.0003 µM): 12.4795
- inhibition at 0.003 µM (wild-type EGFR; concentration 3 nM, one value per replicate column): 14.4%
- Inhibition (wild-type EGFR; concentration 3 nM, one value per replicate column, 0.003 µM): 19.0476
- inhibition at 0.03 µM (wild-type EGFR; concentration 30 nM, one value per replicate column): 18.2%
- Inhibition (wild-type EGFR; concentration 30 nM, one value per replicate column, 0.03 µM): 26.7652
- inhibition at 0.3 µM (wild-type EGFR; concentration 300 nM, one value per replicate column): 32.9%
- Inhibition (wild-type EGFR; concentration 300 nM, one value per replicate column, 0.3 µM): 32.1839
- inhibition at 3 µM (wild-type EGFR; concentration 3000 nM, one value per replicate column): 34.7%
- Inhibition (wild-type EGFR; concentration 3000 nM, one value per replicate column, 3 µM): 34.8112
- inhibition at 30 µM (wild-type EGFR; concentration 30000 nM, one value per replicate column): 60.1%
- Inhibition (wild-type EGFR; concentration 30000 nM, one value per replicate column, 30 µM): 58.1281
- A450 (wild-type EGFR; concentration 0.0001 nM): 0.831 and 0.824
- A450 (wild-type EGFR; concentration 0.03 nM): 0.745 and 0.767
- A450 (wild-type EGFR; concentration 0.3 nM): 0.742 and 0.748
- A450 (wild-type EGFR; concentration 3 nM): 0.741 and 0.708
- A450 (wild-type EGFR; concentration 30 nM): 0.717 and 0.661
- A450 (wild-type EGFR; concentration 300 nM): 0.625 and 0.628
- A450 (wild-type EGFR; concentration 3000 nM): 0.614 and 0.612
- A450 (wild-type EGFR; concentration 30000 nM): 0.455 and 0.47
- Inhibitory efficacy (H460 cells; H460 cells, 2uM, given as fraction, Repeat 1-3): 0.3561 and 0.3949
- Inhibitory efficacy (H460 cells; H460 cells, 4uM, given as fraction, Repeat 1-3): 0.5495 and 0.6263
- Inhibitory efficacy (H460 cells; H460 cells, 8uM, given as fraction, Repeat 1-3): 0.7733 and 0.7776
- Inhibitory efficacy (H460 cells; H460 cells, 16uM, given as fraction, Repeat 1-3): 0.8649 and 0.8113
- IC50 (H460 cells; Homo sapiens): 3.18 ± 0.11 µM
- inhibition at 2 µM (H460 cells; Homo sapiens, NCI-H460, read-out: Inhibitory efficacy, H460 cells, 2uM, given as fraction, Repeat 1-3): 29.5%
- inhibition at 4 µM (H460 cells; Homo sapiens, NCI-H460, read-out: Inhibitory efficacy, H460 cells, 4uM, given as fraction, Repeat 1-3): 60.9%
- inhibition at 8 µM (H460 cells; Homo sapiens, NCI-H460, read-out: Inhibitory efficacy, H460 cells, 8uM, given as fraction, Repeat 1-3): 77.7%
- inhibition at 16 µM (H460 cells; Homo sapiens, NCI-H460, read-out: Inhibitory efficacy, H460 cells, 16uM, given as fraction, Repeat 1-3): 81.3%
- Inhibitory efficacy (A549 cells; 1uM): 0.282 and 0.1573
- Inhibitory efficacy (A549 cells; 2uM): 0.4285 and 0.3755
- Inhibitory efficacy (A549 cells; 4uM): 0.5452 and 0.5691
- Inhibitory efficacy (A549 cells; 8uM): 0.5949 and 0.5372
- Inhibitory efficacy (A549 cells; 16uM): 0.5916 and 0.6049
- IC50 (A549 cells): 4.86 ± 0.6 µM
- inhibition at 1 µM (A549 cells; 1uM): 15.3%
- inhibition at 2 µM (A549 cells; 2uM): 40.1%
- inhibition at 4 µM (A549 cells; 4uM): 55.6%
- inhibition at 8 µM (A549 cells; 8uM): 58.9%
- inhibition at 16 µM (A549 cells; 16uM): 65%
- IC50 (PC-9 cells; Homo sapiens): > 100 µM
- Inhibitory efficacy (H1975 cells; 1uM, given as fraction, Repeat 1-3): 0.195 and 0.1523
- Inhibitory efficacy (H1975 cells; [1]): 0.402 and 0.2557
- Inhibitory efficacy (H1975 cells; [2]): 0.3137 and 0.2571
- Inhibitory efficacy (H1975 cells; [3]): 0.5 and 0.471
- Inhibitory efficacy (H1975 cells; [4]): 0.4476 and 0.4006
- IC50 (H1975 cells; Homo sapiens): 18.3 ± 4.45 µM
- inhibition at 1 µM (H1975 cells; Homo sapiens, NCI-H1975, read-out: Inhibitory efficacy, H1975 cells, 1uM, given as fraction, Repeat 1-3): 23.1%
- inhibition at 2 µM (H1975 cells; [5]): 33.3%
- inhibition at 4 µM (H1975 cells; [6]): 29%
- inhibition at 8 µM (H1975 cells; [7]): 52.8%
- inhibition at 16 µM (H1975 cells; [8]): 47.1%

Structure (SMILES): COCCOc1cc2ncnc(Nc3cccc(-c4cn(-c5ccc(F)cc5)nn4)c3)c2cc1OCCOC [e7, [6,7-Bis-(2-methoxy-ethoxy)-quinazolin-4-yl]-{3-[1-(4-fluoro-phenyl)-1H-[1,2,3]triazol-4-yl]-phenyl}-amine]
- melting point: 88 to 91 °C
- inhibition at 0.0003 µM (wild-type EGFR; 0.3 nM, duplicate wells, calculated from A450): 6.05%
- Inhibition (wild-type EGFR; 0.3 nM, duplicate wells, calculated from A450, 0.0003 µM): 3.39
- inhibition at 0.003 µM (wild-type EGFR; 3 nM, duplicate wells, calculated from A450): 8.07%
- Inhibition (wild-type EGFR; 3 nM, duplicate wells, calculated from A450, 0.003 µM): 4.0678
- inhibition at 0.03 µM (wild-type EGFR; 30 nM, duplicate wells, calculated from A450): 9.08%
- Inhibition (wild-type EGFR; 30 nM, duplicate wells, calculated from A450, 0.03 µM): 6.78
- inhibition at 0.3 µM (wild-type EGFR; 300 nM, duplicate wells, calculated from A450): 10.9%
- Inhibition (wild-type EGFR; 300 nM, duplicate wells, calculated from A450, 0.3 µM): 7.627
- inhibition at 3 µM (wild-type EGFR; 3000 nM, duplicate wells, calculated from A450): 13.4%
- Inhibition (wild-type EGFR; 3000 nM, duplicate wells, calculated from A450, 3 µM): 20.339
- inhibition at 30 µM (wild-type EGFR; 30000 nM, duplicate wells, calculated from A450): 61%
- Inhibition (wild-type EGFR; 30000 nM, duplicate wells, calculated from A450, 30 µM): 71.3559
- IC50 (wild-type EGFR): 14.7 µM
- Inhibitory efficacy (H460 cells; H460, 1uM, single repeats (Repeat 1-3), given as fraction, 1 µM): 0.233 and 0.152
- Inhibitory efficacy (H460 cells; H460, 2uM, single repeats (Repeat 1-3), given as fraction, 2 µM): 0.3048 and 0.3792
- Inhibitory efficacy (H460 cells; H460, 4uM, single repeats (Repeat 1-3), given as fraction, 4 µM): 0.2364 and 0.2572
- Inhibitory efficacy (H460 cells; H460, 8uM, single repeats (Repeat 1-3), given as fraction, 8 µM): 0.2581 and 0.2146
- Inhibitory efficacy (H460 cells; H460, 16uM, single repeats (Repeat 1-3), given as fraction, 16 µM): 0.3099 and 0.4184
- IC50 (H460 cells; Homo sapiens): > 100 µM
- inhibition at 1 µM (H460 cells; Homo sapiens, NCI-H460, read-out: Inhibitory efficacy, H460, 1uM, single repeats (Repeat 1-3), given as fraction): 13.2%
- inhibition at 2 µM (H460 cells; Homo sapiens, NCI-H460, read-out: Inhibitory efficacy, H460, 2uM, single repeats (Repeat 1-3), given as fraction): 30.4%
- inhibition at 4 µM (H460 cells; Homo sapiens, NCI-H460, read-out: Inhibitory efficacy, H460, 4uM, single repeats (Repeat 1-3), given as fraction): 30.3%
- inhibition at 8 µM (H460 cells; Homo sapiens, NCI-H460, read-out: Inhibitory efficacy, H460, 8uM, single repeats (Repeat 1-3), given as fraction): 29.6%
- inhibition at 16 µM (H460 cells; Homo sapiens, NCI-H460, read-out: Inhibitory efficacy, H460, 16uM, single repeats (Repeat 1-3), given as fraction): 26.7%
- Inhibitory efficacy (A549 cells; 1uM): 0.3498 and 0.2466
- Inhibitory efficacy (A549 cells; 2uM): 0.3315 and 0.2534
- Inhibitory efficacy (A549 cells; 4uM): 0.2813 and 0.2524
- Inhibitory efficacy (A549 cells; 8uM): 0.2486 and 0.3238
- Inhibitory efficacy (A549 cells; 16uM): 0.291 and 0.2842
- IC50 (A549 cells): > 100 µM
- inhibition at 1 µM (A549 cells; 1uM): 27.5%
- inhibition at 2 µM (A549 cells; 2uM): 24.8%
- inhibition at 4 µM (A549 cells; 4uM): 30.8%
- inhibition at 8 µM (A549 cells; 8uM): 29.7%
- inhibition at 16 µM (A549 cells; 16uM): 37.2%
- IC50 (PC-9 cells; Homo sapiens): 11.5 ± 1.57 µM
- inhibition at 4 µM (PC-9 cells; Homo sapiens, PC-9, read-out: Inhibitory efficacy, PC-9, 4uM, single repeats (Repeat 1-3), given as fraction): 21.3%
- inhibition at 8 µM (PC-9 cells; Homo sapiens, PC-9, read-out: Inhibitory efficacy, PC-9, 8uM, single repeats (Repeat 1-3), given as fraction): 41.9%
- inhibition at 16 µM (PC-9 cells; Homo sapiens, PC-9, read-out: Inhibitory efficacy, PC-9, 16uM, single repeats (Repeat 1-3), given as fraction): 62.5%
- Inhibitory efficacy (PC-9 cells; PC-9, 4uM, 4 µM): 0.2652 and 0.1935
- Inhibitory efficacy (PC-9 cells; PC-9, 8uM, 8 µM): 0.448 and 0.4014
- Inhibitory efficacy (PC-9 cells; PC-9, 16uM, 16 µM): 0.5556 and 0.543
- Inhibitory efficacy (H1975 cells; [1]): 0.2223 and 0.2165
- Inhibitory efficacy (H1975 cells; [2]): 0.3132 and 0.3374
- Inhibitory efficacy (H1975 cells; [3]): 0.4723 and 0.4708
- Inhibitory efficacy (H1975 cells; [4]): 0.4151 and 0.4664
- IC50 (H1975 cells; Homo sapiens): 13.1 ± 4.41 µM
- inhibition at 2 µM (H1975 cells; [5]): 29.3%
- inhibition at 4 µM (H1975 cells; [6]): 38.9%
- inhibition at 8 µM (H1975 cells; [7]): 50.2%
- inhibition at 16 µM (H1975 cells; [8]): 54.1%
